± gives the standard deviation of the averaged measurements.
Experiment: TIMS collisional cross section (CCS, N2) of the lipid ion; higher = larger ion cross section
Conditions: ionization mode: positive, one isomer drawn

Row | Compound | TIMS collisional cross section (sample type: Liver) [Å²] | TIMS collisional cross section (sample type: plasma) [Å²] | TIMS collisional cross section (sample type: HeLa) [Å²]
1 | CCCCC/C=C\C/C=C\C/C=C\CCCCCCC(=O)OC[C@@H](O)COP(=O)([O-])OCC[N+](C)(C)C [LPC 20:3_0:0] (ion (formula + adduct): [C28H52NO7P+H] 1+) | 231.55 ± 1.1 | 232.43 ± 1.2 | 
2 | CCCCC/C=C\C/C=C\C/C=C\C/C=C\CCCC(=O)OC[C@@H](O)COP(=O)([O-])OCC[N+](C)(C)C [LPC 20:4] (ion (formula + adduct): [C28H50NO7P+H] 1+) | 230 | 231.65 ± 3.2 | 
3 | CCCCC/C=C\C/C=C\C/C=C\C/C=C\CCCC(=O)O[C@H](CO)COP(=O)([O-])OCC[N+](C)(C)C [LPC 20:4] (ion (formula + adduct): [C28H50NO7P+H] 1+) |  | 231.1 | 
4 | CC/C=C\C/C=C\C/C=C\C/C=C\C/C=C\CCCC(=O)OC[C@@H](O)COP(=O)([O-])OCC[N+](C)(C)C [LPC 20:5_0:0] (ion (formula + adduct): [C28H48NO7P+H] 1+) |  | 226.4 | 
5 | CCCCCCCCCC/C=C\CCCCCCCCCC(=O)OC[C@@H](O)COP(=O)([O-])OCC[N+](C)(C)C [LPC 22:1] (ion (formula + adduct): [C30H60NO7P+H] 1+) |  | 247.6 | 247.3
6 | CCCCCCCCCC/C=C\CCCCCCCCCC(=O)OC[C@@H](O)COP(=O)([O-])OCC[N+](C)(C)C [LPC 22:1_0:0] (ion (formula + adduct): [C30H60NO7P+H] 1+) |  | 246.6 | 246.1
7 | CCCCC/C=C\C/C=C\CCCCCCCCCCCC(=O)OC[C@@H](O)COP(=O)([O-])OCC[N+](C)(C)C [LPC 22:2] (ion (formula + adduct): [C30H58NO7P+H] 1+) |  | 242 | 
8 | CCCCC/C=C\C/C=C\C/C=C\C/C=C\CCCCCC(=O)OC[C@@H](O)COP(=O)([O-])OCC[N+](C)(C)C [LPC 22:4] (ion (formula + adduct): [C30H54NO7P+H] 1+) |  | 237.55 ± 1.2 | 
9 | CCCCC/C=C\C/C=C\C/C=C\C/C=C\C/C=C\CCC(=O)OC[C@@H](O)COP(=O)([O-])OCC[N+](C)(C)C [LPC 22:5] (ion (formula + adduct): [C30H52NO7P+H] 1+) |  | 233.2 | 232.9
10 | CC/C=C\C/C=C\C/C=C\C/C=C\C/C=C\C/C=C\CCC(=O)OC[C@@H](O)COP(=O)([O-])OCC[N+](C)(C)C [LPC 22:6] (ion (formula + adduct): [C30H50NO7P+H] 1+) | 234.5 | 233.5 ± 1.3 | 232.4
11 | CC/C=C\C/C=C\C/C=C\C/C=C\C/C=C\C/C=C\CCC(=O)OC[C@@H](O)COP(=O)([O-])OCC[N+](C)(C)C [LPC 22:6_0:0] (ion (formula + adduct): [C30H50NO7P+H] 1+) |  | 233.1 | 
12 | CCCCCCCCCCCCCCCCCCCCCCCC(=O)OC[C@@H](O)COP(=O)([O-])OCC[N+](C)(C)C [LPC 24:0] (ion (formula + adduct): [C32H66NO7P+H] 1+) | 258.9 | 259.1 | 258.5
13 | CCCCCCCC/C=C\CCCCCCCCCCCCCC(=O)OC[C@@H](O)COP(=O)([O-])OCC[N+](C)(C)C [LPC 24:1] (ion (formula + adduct): [C32H64NO7P+H] 1+) | 253.85 ± 0.49 | 253.3 | 253.5
14 | CCCCCCCCCCCCCCCCOC[C@@H](O)COP(=O)([O-])OCC[N+](C)(C)C [LPC O- 16:0] (ion (formula + adduct): [C24H52NO6P+H] 1+) |  | 230.6 | 230.5
15 | CCCC/C=C\CCCCCCCCCCOC[C@@H](O)COP(=O)([O-])OCC[N+](C)(C)C [LPC O- 16:1] (ion (formula + adduct): [C24H50NO6P+H] 1+) |  | 224.8 | 225.4
16 | CCCCCCCCCCCCCCCCCCOC[C@@H](O)COP(=O)([O-])OCC[N+](C)(C)C [LPC O- 18:0] (ion (formula + adduct): [C26H56NO6P+H] 1+) | 238.2 |  | 238.4
17 | CCCCCC/C=C\CCCCCCCCCCOC[C@@H](O)COP(=O)([O-])OCC[N+](C)(C)C [LPC O- 18:1] (ion (formula + adduct): [C26H54NO6P+H] 1+) |  | 233.67 ± 0.64 | 233.6
18 | CCCCCCCCCCCCCCCCCCCCOC[C@@H](O)COP(=O)([O-])OCC[N+](C)(C)C [LPC O- 20:0] (ion (formula + adduct): [C28H60NO6P+H] 1+) |  | 245.9 | 
19 | CCCCCCCCCCCCCCCC(=O)O[C@H](CO)COP(=O)(O)OCCN [LPE 16:0] (ion (formula + adduct): [C21H44NO7P+H] 1+) | 214.5 |  | 
20 | CCCCCCCCCCCCCCCC(=O)OC[C@@H](O)COP(=O)(O)OCCN [LPE 16:0] (ion (formula + adduct): [C21H44NO7P+H] 1+) | 215.9 ± 2.1 | 215.7 ± 2.5 | 214.5

Row | Compound | TIMS collisional cross section (sample type: Liver) [Å²] | TIMS collisional cross section (sample type: plasma) [Å²] | TIMS collisional cross section (sample type: HeLa) [Å²]
21 | CCCCCCCCCCCCCCCC(=O)OC[C@@H](O)COP(=O)(O)OCCN [LPE 16:0_0:0] (ion (formula + adduct): [C21H44NO7P+H] 1+) |  |  | 217.4
22 | CCCCCC/C=C\CCCCCCCC(=O)OC[C@@H](O)COP(=O)(O)OCCN [LPE 16:1] (ion (formula + adduct): [C21H42NO7P+H] 1+) | 207.8 | 207.4 | 
23 | CCCCCC/C=C\CCCCCCCC(=O)OC[C@@H](O)COP(=O)(O)OCCN [LPE 16:1_0:0] (ion (formula + adduct): [C21H42NO7P+H] 1+) |  |  | 210.1
24 | CCCCCCCCCCCCCCCCCC(=O)O[C@H](CO)COP(=O)(O)OCCN [LPE 18:0] (ion (formula + adduct): [C23H48NO7P+H] 1+) | 222 |  | 221.7
25 | CCCCCCCCCCCCCCCCCC(=O)OC[C@@H](O)COP(=O)(O)OCCN [LPE 18:0] (ion (formula + adduct): [C23H48NO7P+H] 1+) |  | 221.8 | 
26 | CCCCCC/C=C\CCCCCCCCCC(=O)O[C@H](CO)COP(=O)(O)OCCN [LPE 18:1] (ion (formula + adduct): [C23H46NO7P+H] 1+) | 215.4 |  | 218.1
27 | CCCCCCCC/C=C\CCCCCCCC(=O)OC[C@@H](O)COP(=O)(O)OCCN [LPE 18:1] (ion (formula + adduct): [C23H46NO7P+H] 1+) | 217 ± 2 | 216.93 ± 1.3 | 216.4
28 | CCCCC/C=C\C/C=C\CCCCCCCC(=O)O[C@H](CO)COP(=O)(O)OCCN [LPE 18:2] (ion (formula + adduct): [C23H44NO7P+H] 1+) |  | 211.2 ± 0.85 | 
29 | CCCCC/C=C\C/C=C\CCCCCCCC(=O)OC[C@@H](O)COP(=O)(O)OCCN [LPE 18:2] (ion (formula + adduct): [C23H44NO7P+H] 1+) | 211.45 ± 1.1 | 214.1 | 
30 | CCCCC/C=C\C/C=C\C/C=C\CCCCC(=O)OC[C@@H](O)COP(=O)(O)OCCN [LPE 18:3] (ion (formula + adduct): [C23H42NO7P+H] 1+) |  | 208.3 | 
31 | CCCCCCCCCCCCCCCCCCCC(=O)OC[C@@H](O)COP(=O)(O)OCCN [LPE 20:0] (ion (formula + adduct): [C25H52NO7P+H] 1+) |  |  | 229.2
32 | CCCCCCCC/C=C\CCCCCCCCCC(=O)OC[C@@H](O)COP(=O)(O)OCCN [LPE 20:1] (ion (formula + adduct): [C25H50NO7P+H] 1+) | 223.5 | 223.3 | 
33 | CCCCC/C=C\C/C=C\C/C=C\CCCCCCC(=O)OC[C@@H](O)COP(=O)(O)OCCN [LPE 20:3] (ion (formula + adduct): [C25H46NO7P+H] 1+) | 217.2 | 217.3 | 216.8
34 | CCCCC/C=C\C/C=C\C/C=C\C/C=C\CCCC(=O)O[C@H](CO)COP(=O)(O)OCCN [LPE 20:4] (ion (formula + adduct): [C25H44NO7P+H] 1+) |  | 214.45 ± 0.92 | 
35 | CC/C=C\C/C=C\C/C=C\C/C=C\C/C=C\CCCC(=O)OC[C@@H](O)COP(=O)(O)OCCN [LPE 20:5] (ion (formula + adduct): [C25H42NO7P+H] 1+) |  | 210.7 | 
36 | CCCCCCCCCCCCCCCCCCCCCC(=O)OC[C@@H](O)COP(=O)(O)OCCN [LPE 22:0] (ion (formula + adduct): [C27H56NO7P+H] 1+) |  |  | 236.4
37 | CCCCC/C=C\C/C=C\C/C=C\C/C=C\CCCCCC(=O)O[C@H](CO)COP(=O)(O)OCCN [LPE 22:4] (ion (formula + adduct): [C27H48NO7P+H] 1+) | 223.9 |  | 
38 | CCCCC/C=C\C/C=C\C/C=C\C/C=C\CCCCCC(=O)OC[C@@H](O)COP(=O)(O)OCCN [LPE 22:4] (ion (formula + adduct): [C27H48NO7P+H] 1+) |  | 223.6 | 223.8
39 | CCCCC/C=C\C/C=C\C/C=C\C/C=C\C/C=C\CCC(=O)OC[C@@H](O)COP(=O)(O)OCCN [LPE 22:5] (ion (formula + adduct): [C27H46NO7P+H] 1+) | 221 | 220.3 ± 1.4 | 220.9
